What is called IC50 is the concentration that inhibits the measured activity by half. Lower therefore signals greater potency.

This assay has as its target Aldo-keto reductase family 1 member B1 (Rattus norvegicus, UniProt P07943). Nature of the assay: Inhibition of ALR2 from Sprague-Dawley albino rat lens extract by spectrophotometrically.
Turning to `O=C(O)[C@H]1Cc2ccccc2N1C(=O)OCc1ccccc1`, half-maximal inhibition (IC50) required 41.4 µM.

Regarding `CN(C)C(=O)Oc1ccc2nnc3ccnn3c2c1`, it took 38.7 µM to reach half-maximal inhibition (IC50).

Take `N#CC(C#N)=CNc1ccc(S(=O)(=O)c2ccc(NC=C(C#N)C#N)cc2)cc1`: the IC50 came out at 52.7 µM. This IC50 and that of the compound before are within 1.5-fold of each other.

With `O=C(O)[C@@H]1CSCN1C(=O)OCC1c2ccccc2-c2ccccc21`, the IC50 was 3.92 µM.

Turning to `O=C(O)CCCc1nc(-c2cnc3n(c2=O)CCS3)no1`, the IC50 was 1.19 µM.

Regarding `O=S(=O)(Oc1ccc2nonc2c1)c1ccc(Cl)s1`, 35.6 µM corresponded to half-maximal inhibition (IC50). Against the preceding compound, the IC50 is about 30-fold higher.

The compound `Cc1ccc(S(=O)(=O)Oc2c(Cc3ccccc3)c(=O)n(C)c3ccccc23)cc1` yielded an IC50 of 31.1 µM. The IC50 values of the last two compounds are within 1.5-fold of each other.

`O=[N+]([O-])c1c(Sc2ccccc2)sc(Sc2ccccc2)c1[N+](=O)[O-]` showed an IC50 of 48.1 µM.

`O=C(O)C[C@@H](CC(=O)Nc1ccc2ccccc2n1)c1ccccc1` had an IC50 of 85.3 µM.

The compound `COc1cccc2c1c(NC(=O)CSCC(=O)O)nn2C` registered an IC50 of 77.6 µM.

In turn, `O=C(O)C(Cc1ccc([N+](=O)[O-])cc1)NS(=O)(=O)c1ccccc1` (stereo unspecified) yielded an IC50 of 107 µM.
